Measurements taken from patent US20180251824A1, “IN VITRO GENOTOXICITY ASSAY USING A TRANSCRIPTOMIC BIOMARKER WITH DIRECT DIGITAL COUNTING” (GEORGETOWN UNIVERSITY, priority 2017, published 2018).
Entries after “also recorded” stand apart in the source; their conditions may differ.

What was measured:
[1] = tested on: TGx-DDI biomarker genes in TK6 cells; assay: TGx-DDI transcriptomic biomarker classification by microarray; assay type: cell-based, human; conditions: for TGx-DDI classification, overall call (DDI if positive in any of 2DC, PCA, PA): TK6 cells, 4 h, single selected concentration; for TGx-DDI classification by 2DC and/or PCA: DDI branch in 2DC or negative PC1 = DDI; for TGx-DDI prediction by probability analysis (PA): DDI call based on p>0.9
Text: Microarray procedures: RNA samples from the concentration-setting experiments of each compound at their selected concentrations were pooled together and analyzed using human whole genome expression long-nucleotide probe microarrays (60 nucleotide long, Agilent Technologies) microarray (Li et al., 2015). […] Each experiment was run on two arrays, and on each array both treated and reference (vehicle control) samples were hybridized in a dye-swap design. Specifically, the reference and treatment samples were labeled with two different fluorescence dyes, Cy3 and Cy5, and then both samples were hybridized onto one array. To reduce the effects associated with different labeling efficiencies, a two-color dye-swapping configuration was used. The results from these two arrays were combined for statistical analysis.
TGx-DDI transcriptomic biomarker evaluation: Following the dose determination, microarray analysis was performed for each test compound. RNAs from three replicates in the concentration-setting experiment were pooled together and used for microarray analysis. Cisplatin and ionizing radiation were used in parallel during each experiment as positive controls and to assess batch variation. The TGx-DDI transcriptomic biomarker panel was used to classify each chemical as DDI or non-DDI using two-dimensional clustering (2DC), principal component analysis (PCA), and probability analysis (PA). Hierarchical clustering and PCA were used as an initial unsupervised method to explore the data.
The TGx-DDI heatmap for chemicals in all five classes. PA, PCA, and 2DC results using the TGx-DDI biomarker for validation chemicals were generated. In order to decrease the probability of false negatives, a three-pronged approach was used. A chemical was classified as DDI if it gave a positive call in any one of the TGx-DDI biomarker analyses described in the paragraph above (2DC, PCA or PA prediction).

[2] = tested on: ATF3, CDKN1A and GADD45A expression in TK6 cells; assay: qRT-PCR indicator stress gene panel, dose optimization; assay type: cell-based, human; conditions: for transcriptional response of the indicator genes at a later time point: later than the 4 h time point
Procedure: Dose optimization: For some assays, a sufficient concentration of the test agent is required to trigger a measureable transcriptional response; such concentrations may differ from other toxicological endpoints. Therefore, to determine an appropriate concentration for transcriptomics profiling, a dose-range finder experiment was performed for all test compounds as described in Li et al. (2015). Six concentrations of each agent were used for assessment of mRNA changes in three indicator genes (ATF 3, CDKNIA, and GADD45A) by qRT-PCR. The concentration for each agent showing the strongest induction of the indicator genes was then selected. In addition, concordance of responses in the indicator genes was confirmed prior to pooling samples for microarray analysis. If none of the indicator genes were induced in concentration-setting experiments, the IC50 was selected for the microarray analysis. The IC50 value was determined using a standard MTT assay at 24 hr using 10 concentrations and 3 replicates. Based on this cytotoxicity assay, the selected concentrations for microarray analysis were not overtly cytotoxic for any test agent (FIG. 2). If there was neither cytotoxicity nor induction of expression changes in the gene panel, a concentration of 1 mM was used for microarray analysis, as per the revised ICHS2(R1) guidance on genotoxicity testing of pharmaceuticals (ICHS2(R1) (2012) Guidance for Industry: S2(R1) Genotoxicity testing and data interpretation for pharmaceuticals intended for human use. US Department of Health and Human Services, Food and Drug Administration http://www.ich.org/fileadmin/Public_Web_Site/ICH_Products/Guidelines/Safety/S2_R1/Step4/S2R1_Step4.pdf). Selection of a single concentration and pooling replicate samples for microarray analysis (described below) is specific to biomarker development and validation, where multiple compounds were used in each class; future application in substance testing should be undertaken using a dose-response design with samples in triplicate (Buick et al., 2017).

[3] = tested on: TGx-DDI biomarker genes in TK6 cells; assay: TGx-DDI nCounter assay (direct digital counting); conditions: 100 ng total RNA, same samples as microarray; 2DC, PCA, PA
Procedure: Briefly, exponentially growing cells were treated with the indicated chemical agent for 4 h over a broad dose range, cells were harvested, and total RNA was isolated. […] For cell viability assays, at the end of 4 hr treatment, medium was removed from cells, and cells were washed and recovered in fresh medium for 20 hr. Cell viability was measured at the end of recovery period using an MTT Assay kit (Cayman Chemical, Ann Arbor, Mich.).
TGx-DDI nCounter Assay: The nCounter™ assay was performed on 100 ng of RNA that had previously been pooled and used in microarray analysis. […] In brief, optimized sequences for genes in the TGx-DDI panel were custom-designed and manufactured by NanoString. The CodeSet includes the TGx-DDI gene-set and eight housekeeping genes. Housekeeping genes were selected based on stability and detectable expression levels, including G6PD, GUSB, HPRT1, LDHA, NONO, PGK1, PPIH, and TFRC.
To validate the sensitivity and specificity of DDI prediction by TGx-DDI nCounter assay, 38 out of 45 testing compounds, including Class 1, 2, 4 and 5, were evaluated using nCounter technology. nCounter assays were performed on 100 ng of total RNA, the same RNA samples that were used in microarray analysis. Following the categorization guideline described already for microarrays, compounds were classified as DDI or non-DDI based on nCounter assay data.

TK6 cells = assay: MTT cell viability assay; assay type: cell-based, human; conditions: selected concentration, 4 hr treatment plus 20 hr recovery
Procedure: Dose optimization: For some assays, a sufficient concentration of the test agent is required to trigger a measureable transcriptional response; such concentrations may differ from other toxicological endpoints. Therefore, to determine an appropriate concentration for transcriptomics profiling, a dose-range finder experiment was performed for all test compounds as described in Li et al. (2015). Six concentrations of each agent were used for assessment of mRNA changes in three indicator genes (ATF 3, CDKNIA, and GADD45A) by qRT-PCR. The concentration for each agent showing the strongest induction of the indicator genes was then selected. In addition, concordance of responses in the indicator genes was confirmed prior to pooling samples for microarray analysis. If none of the indicator genes were induced in concentration-setting experiments, the IC50 was selected for the microarray analysis. The IC50 value was determined using a standard MTT assay at 24 hr using 10 concentrations and 3 replicates. Based on this cytotoxicity assay, the selected concentrations for microarray analysis were not overtly cytotoxic for any test agent (FIG. 2). Based on this cytotoxicity assay, the selected doses for microarray analysis were not overtly cytotoxic. […]

Compound: O=c1[nH]cc(F)c(=O)[nH]1 [5-FU]
- TGx-DDI classification, overall call (DDI if positive in any of 2DC, PCA, PA) [1]: DDI

Compound: Nc1ncn([C@@H]2O[C@H](CO)[C@@H](O)[C@H]2O)c(=O)n1 [5-azacytidine]
- TGx-DDI classification, overall call (DDI if positive in any of 2DC, PCA, PA) [1]: non-DDI
- transcriptional response of the indicator genes at a later time point [2]: stronger transcriptional response

Compound: Nc1nc2[nH]cnc2c(=S)[nH]1 [6-TG]
- TGx-DDI classification, overall call (DDI if positive in any of 2DC, PCA, PA) [1]: DDI

Compound: Sc1ncnc2nc[nH]c12 [6-mercaptopurine]
- TGx-DDI classification, overall call (DDI if positive in any of 2DC, PCA, PA) [1]: non-DDI
- transcriptional response of the indicator genes at a later time point [2]: stronger transcriptional response

Compound: COS(C)(=O)=O [MMS]
- clustering by 2DC using the TGx-DDI biomarker ([1]; reproducibility check with training-set agents, selected concentration): clustered with the genotoxic agents

Compound: CS(=O)(=O)OCCCCOS(C)(=O)=O [busulfan]
- TGx-DDI classification by nCounter [3]: consistency among three classification methods
- TGx-DDI classification by 2DC and/or PCA [1]: DDI agents; also recorded: positive
- TGx-DDI prediction by probability analysis (PA) [1]: non-DDI
- GADD45A induction relative to vehicle-treated control cells ([2]; TK6 cells, 4 h treatment, selected concentration): at least 2 fold
- induction of stress genes at higher concentrations ([2]; concentrations above the selected one): did not cause greater induction

Compound: Cc1nc(Nc2ncc(C(=O)Nc3c(C)cccc3Cl)s2)cc(N2CCN(CCO)CC2)n1 [dasatanib]
- TGx-DDI classification, overall call (DDI if positive in any of 2DC, PCA, PA) [1]: genotoxic calls

Compound: CC/C(=C(/CC)c1ccc(O)cc1)c1ccc(O)cc1 [diethylstilbestrol]
- TGx-DDI classification by 2DC and/or PCA [1]: positive
- TGx-DDI prediction by probability analysis (PA) [1]: non-DDI
- TGx-DDI classification, overall call (DDI if positive in any of 2DC, PCA, PA) [1]: genotoxic calls

Compound: Oc1ccc(O)cc1 [hydroquinone]
- TGx-DDI classification by nCounter [3]: consistency among three classification methods
- TGx-DDI classification by 2DC and/or PCA [1]: DDI agents; also recorded: positive
- TGx-DDI prediction by probability analysis (PA) [1]: non-DDI

Compound: CCn1cc(C(=O)O)c(=O)c2cc(F)c(N3CCNCC3)cc21 [norfloxacin]
- TGx-DDI classification, overall call (DDI if positive in any of 2DC, PCA, PA) [1]: non-DDI

Compound: CCCN(CCc1cccs1)[C@H]1CCc2c(O)cccc2C1 [rotigotin]
- induction of indicator genes ATF3, CDKN1A, GADD45A ([2]; TK6 cells, 4 h treatment, selected or tested concentrations): did not induce any of the indicator genes

Compound: bleomycin
- decline (reduction) in cell viability at 24 hr (TK6 cells): 80%
